The values that follow come from PubChem BioAssay (NCI).

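Step 1: Grow cells in 96-well plates. Step 2: Expose to compound for 48 hours at 5 concentrations. Step 3: Interpolate endpoints linearly; if unreached, use highest concentration. GI50 is the concentration that inhibits growth by half. TGI: total growth inhibition.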

Experiment in all cases: growth of human tumour cells (NCI), 48 h
Experiment [1] concerns EKVX NSCLC.
Experiment [2] concerns TK-10 renal.
In experiment [3] the test system is SK-MEL-5 melanoma.
Experiment [4] relates to NCI-H226 lung.
In experiment [5] the test system is HL-60(TB) leukemia.
The subject of experiment [6] is HT29 colon.
The subject of experiment [7] is ACHN renal.
For experiment [8], the system named is NCI/ADR-RES ovarian.
In experiment [9] the test system is SK-MEL-2 melanoma.
Experiment [10] has as its system SF-268 CNS.

For the compound `CC(=O)Oc1cc(-c2oc3cc(OC(C)=O)c(C4OC(CO)C(O)C(O)C4O)c(OC(C)=O)c3c(=O)c2O)c(OC(C)=O)cc1O` (stereo not given), the TGI in experiment [1], in experiment [2], in experiment [3], in experiment [4], in experiment [5] and in experiment [6] was more than 100 µM in each case. The TGI in [7], in experiment [8] and in [9] was more than 100 µM throughout.
With `CN(/N=C/C=N/N(C)C1=NCCN1)C1=NCCN1`, the TGI in [1], in experiment [2], in experiment [3], in experiment [4], in experiment [10] and in experiment [6] was more than 100 µM throughout. Also, the TGI in experiment [7] and in [8] was more than 100 µM throughout.
Turning to `O=C(CCCn1ccnc1[N+](=O)[O-])NCCn1cnc([N+](=O)[O-])n1`, the TGI in experiment [2], in experiment [3], in experiment [4], in experiment [5], in experiment [10] and in experiment [6] was more than 100 µM each time. The TGI in [7], in [8] and in [9] was more than 100 µM throughout.
In the case of `O=CC1OC(=O)c2cc(O)c(O)c(O)c2-c2c(cc(O)c(O)c2O)C(=O)OC1C1OC(=O)c2cc(O)c(O)c(O)c2-c2c(O)c(O)c3oc(=O)c4c(c(O)c(O)c5oc(=O)c2c3c54)-c2c(cc(O)c(O)c2O)C(=O)OCC1O` (stereo not given), the TGI in experiment [1] is more than 100 µM; in experiment [3] it was more than 100 µM; in experiment [4] it was more than 100 µM; in experiment [5], more than 100 µM; in experiment [10], more than 100 µM; in [6], 29.6 µM. Further, the TGI in experiment [7], in [8] and in experiment [9] was more than 100 µM in each case.
On to `CC(C)=CCc1cc(/C=C/C(=O)O)cc(CC=C(C)C)c1O`, for which the TGI in experiment [1], in experiment [2], in experiment [3], in experiment [5], in [10] and in experiment [6] was more than 100 µM each time. Further, the TGI in experiment [7], in experiment [8] and in experiment [9] was more than 100 µM in each case.
For the compound `COc1ccc(Nc2cc(=O)[nH]c(=O)[nH]2)cc1`, the TGI in experiment [1], in [2], in [3], in experiment [4], in experiment [5] and in experiment [10] was more than 100 µM in each case. Also, the TGI in [6], in experiment [7] and in experiment [8] was more than 100 µM each time.
In the case of `O=C(OCC(OC(=O)c1ccccc1)C1CC(C2(O)CCCCC2)C(=O)O1)c1ccccc1` (stereo not given), the TGI in [1], in experiment [2], in [3], in experiment [4], in [10] and in experiment [6] was more than 25 µM in each case. Besides, the TGI in experiment [7], in [8] and in experiment [9] was more than 25 µM throughout.
For `C[C@@H](c1ccccc1)N1CO[C@@]2(C#Cc3ccc4c(c3)OCO4)CCC[C@@H]12`, the TGI in experiment [1] is 52.6 µM; in experiment [2] it was 28.8 µM; in experiment [3], 25.8 µM; in [4] it was 38.6 µM; in experiment [5], more than 100 µM; in [6] it was 34.6 µM. For the same compound, the results for the TGI in experiment [7], in experiment [8] and in [9] were more than 100 µM, 30.8 µM and 34.3 µM, respectively.
As for `O=c1c2cc([N+](=O)[O-])ccc2n2n1CCCCC2`, the TGI in [1], in [2], in experiment [3], in experiment [4], in experiment [5] and in experiment [10] was more than 100 µM each time. Also, the TGI in [6], in [7] and in [8] was more than 100 µM in each case.
Regarding `CCOc1cc2c(cc1O)C(=O)C[C@@H]1[C@@H]2CC[C@]2(C)[C@@H](O)CC[C@@H]12`, the TGI in experiment [1] was more than 100 µM; in [2], more than 100 µM; in experiment [3], 7.11 µM; in experiment [4], 17 µM; in experiment [10], more than 95.4 µM; in experiment [6], 29.9 µM. Also, the values for the TGI in [7], in [8] and in experiment [9] were more than 100 µM, 8.27 µM and more than 58.1 µM, respectively.
As for `COC(=O)[C@H](Cc1ccccc1)NC(=O)N(CCNC(=O)OC(C)(C)C)c1ccccc1`, the TGI in experiment [1], in experiment [3], in experiment [4], in [5], in experiment [10] and in experiment [6] was more than 100 µM each time. Moreover, the TGI in experiment [7], in [8] and in experiment [9] was more than 100 µM each time.
Take `CN(C)CC(C)(C)CN1c2ccccc2Sc2ccccc21`: the TGI in experiment [1] was found to be 28.8 µM; in experiment [2], 26.9 µM; in [3] it was 29.4 µM; in experiment [4], 33.4 µM; in [10] it was 27.5 µM; in experiment [6] it was 22.6 µM. Also, the TGI stood at 28.3 µM in [7], 26.3 µM in experiment [8] and 28.8 µM in [9].
In the case of `N=c1oc2cc(O)ccc2cc1C(=O)Nc1cccc2ccccc12`, the TGI in [1] was determined as 14.6 µM; in experiment [2], 7.68 µM; in [3], 15.8 µM; in experiment [4] it was 16.6 µM; in experiment [5] it was 10.7 µM; in experiment [10], 57.2 µM. In addition, the TGI was 26.9 µM in [6], 15.9 µM in experiment [7] and 4.43 µM in experiment [8].
As to `Cc1ccc(S(=O)(=O)Nn2c(S)c(C#N)c(-c3ccc(Cl)cc3)c(C#N)c2=O)cc1`, the TGI in experiment [1] was more than 100 µM; in [2], 76 µM; in [3] it was 42.2 µM; in experiment [4], 66.5 µM; in [5], 65.8 µM; in experiment [7], more than 100 µM. Also, the values for the TGI in experiment [8] and in [9] were 71.5 µM and more than 100 µM, respectively.
Consider `O=C(Nc1ccc(F)cc1)c1cc2c(cc1Cl)Sc1nccn1S2(=O)=O`, for which the TGI in experiment [1], in [3], in experiment [4], in experiment [10], in experiment [6] and in experiment [7] was more than 100 µM throughout. The TGI in [8] and in experiment [9] was more than 100 µM in each case.
Regarding `O=C(CC(C(=O)c1cccs1)c1ccc2c(c1)OCO2)c1ccccc1` (stereo not given), the TGI in [2], in experiment [3], in experiment [4], in experiment [5], in [10] and in experiment [6] was more than 100 µM each time. The TGI in experiment [7], in [8] and in experiment [9] was more than 100 µM in each case.
For `Cc1cc(N=Cc2c(CO)cnc(C)c2O)c(N=Cc2c(CO)cnc(C)c2O)cc1C`, the TGI in experiment [1], in experiment [2], in experiment [3], in [4], in experiment [5] and in experiment [10] was more than 100 µM throughout. The TGI in experiment [6], in [7] and in experiment [8] was more than 100 µM each time. Moreover, the GI50 in experiment [5] is 0.0212 µM.
Take `CC(C)CC1N=C(OCc2ccccc2)OC1=O` (stereo not given): the TGI in [1], in [2], in [3], in [4], in experiment [10] and in experiment [6] was more than 100 µM throughout. In addition, the TGI in experiment [7], in experiment [8] and in [9] was more than 100 µM throughout.
Consider `Nc1ccc(C2SCC(=O)N2NS(=O)(=O)c2cccc(C(=O)O)c2)cc1` (stereo not given), for which the TGI in experiment [1], in experiment [2], in experiment [3], in [4], in [5] and in [10] was more than 100 µM in each case. Also, the TGI in experiment [6], in [7] and in experiment [9] was more than 100 µM in each case.
For `N#C/C(=C\c1ccc[nH]1)C(=O)c1ccccc1`, the TGI in experiment [1], in experiment [2], in experiment [3], in [4], in [5] and in [10] was more than 100 µM throughout. The TGI in [6], in experiment [7] and in experiment [9] was more than 100 µM in each case.
Regarding `O=C(O)c1ccc(Nc2cnc3cc(C(F)(F)F)ccc3n2)cc1`, the TGI in experiment [1], in experiment [2], in [3], in experiment [4], in [5] and in experiment [10] was more than 100 µM in each case. Moreover, the TGI in [6], in experiment [7] and in experiment [8] was more than 100 µM in each case.
On to `Cc1ccc(-c2cc(=O)c(=O)[nH][nH]2)cc1`, for which the TGI in [1], in experiment [2], in [3], in experiment [4], in experiment [10] and in experiment [6] was more than 100 µM each time. The TGI in experiment [7], in experiment [8] and in experiment [9] was more than 100 µM each time.
As to `COCCCNc1c2ccccc2nc2ccccc12`, the TGI is 27.3 µM in [1]; 89.8 µM in experiment [2]; 4.51 µM in experiment [3]; 15.2 µM in experiment [5]; 16.8 µM in experiment [10]; 51.8 µM in experiment [6]. Further, the TGI in experiment [7] was determined as 2.39 µM; in experiment [8], 33.6 µM; in experiment [9], 4.89 µM.
Consider `CCOC(=O)CC1Nc2ccccc2C12CCc1c([nH]c3ccccc13)C2C(=O)OCC` (stereo not given), for which the TGI in experiment [1] is more than 100 µM; in experiment [2], more than 100 µM; in experiment [3], more than 100 µM; in [5] it was 53.8 µM; in experiment [10] it was more than 100 µM; in [6], 40.1 µM. Also, the TGI in experiment [7], in experiment [8] and in [9] was more than 100 µM in each case.
Turning to `COc1cc(C(c2ccc3c(c2)OCO3)C2SCCCS2)cc(OC)c1OC` (stereo not given), the TGI in experiment [1] is 19.6 µM; in experiment [2], more than 100 µM; in experiment [3], 9.21 µM; in experiment [4] it was 7.11 µM; in experiment [10], more than 100 µM; in [6] it was 3.42 µM. For the same compound, the TGI is more than 100 µM in [7], 6.11 µM in experiment [8] and more than 100 µM in experiment [9].
For the compound `COc1ccc(CNc2nc3cc(C(F)(F)F)ccc3nc2C(=O)O)cc1`, the TGI in experiment [1] is 78.6 µM; in [3], 32.1 µM; in experiment [4], more than 100 µM; in experiment [6], 73.9 µM; in experiment [7], more than 100 µM; in experiment [8], 58.1 µM. Further, in [9], the TGI came out at 62.2 µM.
`C=C(C)CCC(O)[C@](C)(O)[C@H]1[C@H](O)C[C@@]2(C)[C@@H]3CCc4c(cc(OC5OC(CO)C(O)C(O)C5O)c(O)c4C)C3(C)C(=O)C[C@]12C` (stereo not given in full): the TGI in experiment [1], in experiment [2], in experiment [4], in [10], in experiment [6] and in experiment [7] was more than 100 µM throughout. The TGI in experiment [8] and in experiment [9] was more than 100 µM each time.
With `O[C@@]12Cc3c([nH]c4ccccc34)[C@@H]3Oc4c(-c5ccccc5)ccc5c4[C@@]31CCN(CC1CC1)[C@@H]2C5`, the TGI was found to be 4 µM in experiment [1]; 3.25 µM in experiment [3]; 4.48 µM in [5]; 14.7 µM in experiment [10]; 3.29 µM in experiment [6]; 2.75 µM in experiment [7]. Besides, the TGI was 6.58 µM in experiment [8] and 3.3 µM in experiment [9].
As to `O=C1N[C@H](C(=O)O)[C@@H](c2ccc(OCc3ccccc3)cc2)O1`, the TGI is 89.1 µM in [1]; 84.4 µM in experiment [2]; more than 100 µM in experiment [3]; 55.7 µM in [4]; 87.9 µM in [10]; more than 100 µM in experiment [6]. For the same compound, the TGI was more than 100 µM in experiment [7], 65.3 µM in [8] and more than 100 µM in experiment [9].
